According to patent US9220411B2, “In-vivo optical imaging method including analysis of dynamic images” (THE GENERAL HOSPITAL CORPORATION, priority 2006, dated 2015):

Assay: Dynamic in-vivo fluorescence imaging of dye biodistribution after tail vein injection
Set-up: species or system mouse
From the text: FIG. 1 illustrates one embodiment of a fluorescent dynamic optical imaging system 10 for imaging small animals such as mice. The imaging system 10 includes an optical detector 16 which is operable to acquire various images of the mouse. The imaging system 10 also includes a processor and display device 11 which is operable to generate and display other images of the mouse.
The system 10 also includes an imaging platform 12 for supporting a mouse in a desired arrangement, such as in a prone position or a supine position. In a preferred embodiment, mirrors 14 are arranged at 45 degree angles with respect to the imaging platform such that multiple views of the mouse, i.e., a top and/or bottom view, and side views of the mouse, are within the field of view of the optical detector 16, which is arranged above the imaging platform 12. Other embodiments can include other arrangements of optical detector 16 and mirrors to provide other views of the mouse. In one embodiment, the optical detector 16 is a cooled 14 bit charge coupled device (CCD) camera including a relay lens 19 and the field of view is approximately 9 cm by 9 cm. Thus, although the camera produces 2D images, these are “enhanced” 2D images since multiple views of the mouse are obtained.
Bifurcated liquid light guides 25 can be used to deliver light from the sources 18A, 18B to shine on the mouse. Other means can also be used. The light sources 18A, 18B and any corresponding filter elements are selected to have desired characteristics according to the optical contrast substances to be used in the imaging process. For example, when using a fluorescent dye such as indocyanine green (ICG) dye, light source 18A can include two laser diodes (160 mW total) to provide excitation light at 785 nm to excite the ICG dye. When using a fluorescent dye such as Dextran Texas Red dye, light source 18B can be a halogen light source, and a motorized filter wheel having a plurality of filter elements can be used to provide filtered light at a desired excitation wavelength range of 570 nm plus or minus 20 nm to excite the Dextran Texas Red dye. The respective light sources can be controlled by an electronic shutter in the 570 nm light path, or digital modulation of the laser diodes to allow synchronization of illumination with the filter elements, tunable filter, and image acquisition.
At process block 34, a second optical contrast substance is introduced or activated in the mouse. For example, a dye such as an ICG dye or a Dextran Texas Red dye can be used and can be injected into the tail vein of an anesthetized mouse. ICG dye is a good choice because it is widely available, clinically approved, and it excites and emits in the near infra-red (NIR) portion of the spectrum, which is advantageous in that light scatter is lower and penetration is higher at NIR wavelengths. In one embodiment, a dye consisting of 0.05 ml of 260 uM ICG dye (Cardiogreen, Fluka) is used. In another embodiment, […] of 360 uM of Dextran Texas Red dye (70,000 MW, Invitrogen) can be used.
At process block 38, a time series of anatomical image data sets of the second optical contrast substance is acquired using the optical detector, preferably while the animal is in the same desired arrangement. This should preferably be performed right after the second optical contrast is introduced. If the second optical contrast agent is a fluorescent dye, a light source having the appropriate spectral characteristics is applied to excite the fluorescent dye. […]

uptake by the liver (mouse, longer timescales, preliminary data): rapid and sustained uptake by the liver
fluorescence signal, initial organ distribution (prone mouse, tail vein injection, early images (first 15 seconds), initial circulation): initially the lungs are bright
SMILES: CC1(C)C(/C=C/C=C/C=C/C=C2\N(CCCCS(=O)(=O)O)c3ccc4ccccc4c3C2(C)C)=[N+](CCCCS(=O)(=O)[O-])c2ccc3ccccc3c21 [ICG, indocyanine green]
uptake by adipose tissue (mouse, longer timescales (25 minutes), preliminary data): late uptake by adipose tissue, remaining high after 25 minutes
distribution of dye in the body (prone mouse, by 117 seconds after injection): distributed fairly diffusely throughout the mouse
fluorescence signal, next organ distribution (prone mouse, tail vein injection, early images (first 15 seconds), after the lung phase): bright signal is seen in the brain, kidneys, spleen and spine
